Results from ChEMBL document CHEMBL1201862, “PubChem BioAssay data set” (2004).
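Briefly, cells in 96-well plates were exposed to five compound concentrations for 48 h, and endpoints were estimated by linear interpolation. GI50 = concentration required for 50% inhibition of growth.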 The source made the active and inactive calls. Rule as the data show it: active = GI50 up to about 1.1 µM and inactive = higher.

Key:
Test in all cases: NCI-60 cell line screen, 48 h
786-0 = tested on: 786-0
T47D = tested on: T47D
NCI-H460 = tested on: NCI-H460
UACC-62 = tested on: UACC-62
HCT-15 = tested on: HCT-15
HT-29 = tested on: HT-29
PC-3 = tested on: PC-3
SF-295 = tested on: SF-295
SW-620 = tested on: SW-620
M14 = tested on: M14
SR = tested on: SR
SK-MEL-2 = tested on: SK-MEL-2
A549 = tested on: A549
NCI/ADR-RES = tested on: NCI/ADR-RES
NCI-H522 = tested on: NCI-H522
EKVX = tested on: EKVX
SN12C = tested on: SN12C
DU-145 = tested on: DU-145
HOP-62 = tested on: HOP-62
SF-539 = tested on: SF-539

Row | Structure (SMILES) | GI50 (786-0) | GI50 (T47D) | GI50 (NCI-H460) | GI50 (UACC-62) | GI50 (HCT-15) | GI50 (HT-29) | GI50 (PC-3) | GI50 (SF-295) | GI50 (SW-620) | GI50 (M14) | GI50 (SR) | GI50 (SK-MEL-2) | GI50 (A549) | GI50 (NCI/ADR-RES) | GI50 (NCI-H522) | GI50 (EKVX) | GI50 (SN12C) | GI50 (DU-145) | GI50 (HOP-62) | GI50 (SF-539)
1 | C=C(C)C(=O)OC1C[C@H](COC(C)=O)C2CC=C(C)C2C2OC(=O)C(=C)[C@H]12 (stereo not given in full) | 2.98 µM (inactive) | 4.98 µM (inactive) | 15 µM (inactive) | 4.54 µM (inactive) | 1.91 µM | 4.25 µM (inactive) | 7.24 µM (inactive) | 17.1 µM (inactive) | 2.23 µM (inactive) | 2.07 µM (inactive) | 2.06 µM (inactive) | 2.82 µM (inactive) | 17 µM (inactive) | 2.18 µM (inactive) | 1.45 µM (inactive) | 9.82 µM (inactive) | 4.97 µM (inactive) | 6.19 µM (inactive) | 13.3 µM (inactive) | 4.59 µM (inactive)
2 | COc1ccc(CNc2nc(NCc3ccc(OC)cc3)nc(NC3CCCCC3)n2)cc1 | 2.81 µM (inactive) | 3.51 µM (inactive) | 2.7 µM (inactive) | 2 µM (inactive) | 2.13 µM | 3.46 µM (inactive) | 3.21 µM (inactive) | 1.34 µM (inactive) | 3.56 µM (inactive) | 2.15 µM (inactive) | 3.29 µM (inactive) | 2.81 µM (inactive) | 2 µM (inactive) | 1.8 µM (inactive) | 1.21 µM (inactive) | 2.57 µM (inactive) | 3.07 µM (inactive) | 2.9 µM (inactive) | 5.5 µM (inactive) | 3.01 µM (inactive)
3 | CO[C@H]1[C@@H](O)[C@@H](O)O[C@@H](O[C@H]2CC[C@@]3(C)[C@H](CC[C@@H]4[C@@H]3[C@H](O)C[C@]3(C)[C@@H](C5=CC(=O)OC5)CC[C@]43O)C2)[C@@H]1O | 0.296 µM (active) | 0.362 µM (active) | 0.0895 µM (active) | 0.355 µM (active) | 0.281 µM | 0.435 µM (active) | 0.283 µM (active) | 0.141 µM (active) | 0.257 µM (active) | 0.283 µM (active) | 0.21 µM (active) | 0.299 µM (active) | 0.0491 µM (active) | 0.222 µM (active) | 0.0239 µM (active) | 0.151 µM (active) | 0.064 µM (active) | 0.0946 µM (active) | 0.124 µM (active) | 0.08 µM (active)
4 | COc1ccc(/C=C2\C[C@H]3[C@@H]4CC=C5C[C@@H](OC(C)=O)CC[C@]5(C)[C@H]4CC[C@]3(C)\C2=N\O)cc1OC | 8.87 µM (inactive) | 5.38 µM (inactive) | 7.03 µM (inactive) | 30.5 µM (inactive) | 9.44 µM | 5.74 µM (inactive) | 18.8 µM (inactive) | 6.65 µM (inactive) | 84.9 µM (inactive) | 14.7 µM (inactive) | 9.33 µM (inactive) | 20.8 µM (inactive) | 5.12 µM (inactive) | 53.5 µM (inactive) | 21.6 µM (inactive) | 3.01 µM (inactive) | 15.4 µM (inactive) | 39.4 µM (inactive) | 31.7 µM (inactive) | 31 µM (inactive)
5 | C/C(=N\NC(=[Se])N(C)C)c1ccccn1 | 0.0559 µM (active) | 0.0364 µM (active) | < 0.01 µM (active) | < 0.01 µM (active) | 0.0352 µM | < 0.01 µM (active) | < 0.01 µM (active) | < 0.01 µM (active) | < 0.01 µM (active) | 0.0158 µM (active) | < 0.01 µM (active) | 0.585 µM (active) | 0.02 µM (active) | < 0.01 µM (active) | 0.0497 µM (active) | 0.0703 µM (active) | 0.0143 µM (active) | 1.41 µM (inactive) | < 0.01 µM (active) | 0.577 µM (active)
6 | CC(=O)NC(CS/N=N/c1[nH]cnc1C(N)=O)C(=O)O (stereo not given) | 13 µM (inactive) | > 24.1 µM (inactive) | 5.57 µM (inactive) | 4.21 µM (inactive) | 19.5 µM | > 46.9 µM (inactive) | 6.38 µM (inactive) | 4.16 µM (inactive) | 6.15 µM (inactive) | 2.59 µM (inactive) | < 0.01 µM (active) | 2.42 µM (inactive) | > 100 µM (inactive) | 3.04 µM (inactive) | 14.9 µM (inactive) | 54.5 µM (inactive) | 3.21 µM (inactive) | 1.78 µM (inactive) | 35.9 µM (inactive) | 7.87 µM (inactive)
7 | Cc1nc2c(=O)[nH]c(=O)nc-2n(CCO)c1C | > 100 µM (inactive) | > 100 µM (inactive) | > 100 µM (inactive) | > 100 µM (inactive) | > 100 µM | > 100 µM (inactive) | > 100 µM (inactive) | > 100 µM (inactive) | > 100 µM (inactive) | > 100 µM (inactive) | > 100 µM (inactive) | > 100 µM (inactive) | > 100 µM (inactive) | > 100 µM (inactive) | > 100 µM (inactive) | > 100 µM (inactive) | > 100 µM (inactive) | > 100 µM (inactive) | > 100 µM (inactive) | > 100 µM (inactive)
8 | C/C=C(/C)C(=O)O[C@@H]1CCN2CC[C@H](COC(=O)/C(=C/C)CO)C12 (stereo not given in full) | > 95.3 µM (inactive) | > 100 µM (inactive) | 59.6 µM (inactive) | > 100 µM (inactive) | > 100 µM | 28.7 µM (inactive) | > 100 µM (inactive) | > 89.1 µM (inactive) | > 100 µM (inactive) | 19.6 µM (inactive) | 39.5 µM (inactive) | 41.4 µM (inactive) | > 100 µM (inactive) | > 100 µM (inactive) | 49.4 µM (inactive) | > 100 µM (inactive) | > 100 µM (inactive) | > 100 µM (inactive) | > 100 µM (inactive) | 84.1 µM (inactive)
9 | C=CCC1CC(n2cc(C)c(=O)[nH]c2=O)OC1CO[Si](C)(C)C(C)(C)C (stereo not given) | 15.2 µM (inactive) | 10.4 µM (inactive) | 16.5 µM (inactive) | 17.2 µM (inactive) | 15.3 µM | 15.9 µM (inactive) | 11.4 µM (inactive) | 17.6 µM (inactive) | 16.1 µM (inactive) | 18.6 µM (inactive) | 0.0925 µM (active) | 15.5 µM (inactive) | 12.3 µM (inactive) | 15.1 µM (inactive) | 10.4 µM (inactive) | 7.52 µM (inactive) | 15 µM (inactive) | 13.5 µM (inactive) | 18.3 µM (inactive) | 13.8 µM (inactive)
10 | NC(=O)NOCC1NC(=O)NC1=O (stereo not given) | > 100 µM (inactive) | > 100 µM (inactive) | > 100 µM (inactive) | > 100 µM (inactive) | > 100 µM | > 100 µM (inactive) | > 100 µM (inactive) | > 100 µM (inactive) | > 100 µM (inactive) | > 100 µM (inactive) | > 100 µM (inactive) | > 100 µM (inactive) | > 100 µM (inactive) | > 100 µM (inactive) | > 100 µM (inactive) | > 100 µM (inactive) | > 100 µM (inactive) | > 100 µM (inactive) | > 100 µM (inactive) | > 100 µM (inactive)
11 | COC(=O)C1=C([C@H]2COC(C)(C)O2)[C@H]2C[C@@H]1[C@@H]1OC(C)(C)O[C@@H]12 | > 100 µM (inactive) | > 100 µM (inactive) | > 100 µM (inactive) | > 100 µM (inactive) | > 100 µM | > 100 µM (inactive) | > 100 µM (inactive) | > 100 µM (inactive) | > 100 µM (inactive) | > 100 µM (inactive) | > 100 µM (inactive) | > 100 µM (inactive) | > 100 µM (inactive) | > 100 µM (inactive) | > 100 µM (inactive) | > 100 µM (inactive) | > 100 µM (inactive) | > 100 µM (inactive) | > 100 µM (inactive) | > 100 µM (inactive)
12 | c1ccc(Nc2nn3c(CCCCCCCCc4nnc5sc(Nc6ccccc6)nn45)nnc3s2)cc1 | 23.4 µM (inactive) | 13.2 µM (inactive) | 32.4 µM (inactive) | 34.6 µM (inactive) | 36.5 µM | 21.9 µM (inactive) | 31 µM (inactive) | 24.4 µM (inactive) | 29.2 µM (inactive) | 16.5 µM (inactive) | 13.3 µM (inactive) | 29.4 µM (inactive) | 21.6 µM (inactive) | 26.6 µM (inactive) | 20.2 µM (inactive) | 23.3 µM (inactive) | 49.1 µM (inactive) | 47.8 µM (inactive) | 38.5 µM (inactive) | 56.5 µM (inactive)
13 | CCCC(=O)NC(Nc1ccc(F)cc1)(C(F)(F)F)C(F)(F)F | > 100 µM (inactive) | 7.14 µM (inactive) | 56.5 µM (inactive) | 1.09 µM (active) | 5.79 µM | 64.3 µM (inactive) | 19.1 µM (inactive) | 24.5 µM (inactive) | 2.84 µM (inactive) | 0.387 µM (active) | > 100 µM (inactive) | 2.25 µM (inactive) | 16.9 µM (inactive) | 9.31 µM (inactive) | 27.4 µM (inactive) | > 100 µM (inactive) | > 100 µM (inactive) | 33.2 µM (inactive) | > 100 µM (inactive) | > 79.4 µM (inactive)
14 | CCOC(=O)c1cc2c(OC(C)=O)ccc(OC(C)=O)c2s1 | 2.49 µM (inactive) | 1.48 µM (inactive) | 5.65 µM (inactive) | 1.82 µM (inactive) | 1.75 µM | 3.02 µM (inactive) | 1.96 µM (inactive) | 6.9 µM (inactive) | 2.1 µM (inactive) | 1.77 µM (inactive) | 3.27 µM (inactive) | 2.62 µM (inactive) | 10.7 µM (inactive) | 2.2 µM (inactive) | 0.301 µM (active) | 2.82 µM (inactive) | 2.25 µM (inactive) | 4.83 µM (inactive) | 10.3 µM (inactive) | 1.73 µM (inactive)
